US11124785B2, “Rothia subtilisins, S8A family proteases, as therapeutic enzymes for application in gluten intolerance disorders” (TRUSTEES OF BOSTON UNIVERSITY, priority 2016, dated 2021)

B1: subtilisin A: subtilisin A from Bacillus licheniformis (Sigma) (protein, listed as Bacillus licheniformis)
chain: MMRKKSFWLGMLTAFMLVFTMAFSDSASAAQPAKNVEKDYIVGFKSGVKTASVKKDIIKESGGKVDKQFRIINAAKAKLDKEALKEVKNDPDVAYVEEDHVAHALAQTVPYGIPLIKADKVQAQGFKGANVKVAVLDTGIQASHPDLNVVGGASFVAGEAYNTDGNGHGTHVAGTVAALDNTTGVLGVAPSVSLYAVKVLNSSGSGTYSGIVSGIEWATTNGMDVINMSLGGPSGSTAMKQAVDNAYARGVVVVAAAGNSGSSGNTNTIGYPAKYDSVIAVGAVDSNSNRASFSSVGAELEVMAPGAGVYSTYPTSTYATLNGTSMASPHVAGAAALILSKHPNLSASQVRNRLSSTATYLGSSFYYGKGLINVEAAAQ

Key:
mixed gliadins = experiment: Degradation of mixed gliadins (SDS-PAGE); assay type: biochemical, wheat; settings: gliadins 250 μg/ml, enzyme 57 μg/ml
Experimental: FIG. 5A is a representative SDS-PAGE gel of non-digested gliadins (control) and Rmep-treated gliadins. Gliadins (250 μg/ml) in 50 mM Tris/HCl pH 8.0 were incubated with Rmep at 57 μg/ml. After 0, 15 min, 30 min and 2 h incubation 100 μl aliquots were removed, boiled and analyzed by SDS-PAGE and stained with COOMASSIE Brilliant Blue. The bold arrow (left) points to the position of the major band in the gliadin preparation; the thin arrow (right) to the 125 kDa band in the Rmep preparation, and the dotted arrows (right) to the gliadin degradation fragments.
FIG. 6A is a representative SDS-PAGE gel of non-digested gliadins (control) and subtilisin A-treated gliadins. Gliadins (250 μg/ml) in 50 mM Tris/HCl pH 8.0 were incubated with subtilisin A at 57 μg/ml. Experiments were conducted as described in the legend of FIG. 5 with subtilisin A instead of Rmep.
FIG. 8A is a representative SDS-PAGE gel of non-digested gliadins (control) and NattoK-treated gliadins. Mixed gliadins (G, 250 μg/ml) were incubated with NattoK (57 μg/ml) for 0, 15, 30 and 120 min. Left four lanes: controls without enzyme or gliadins, respectively, each at t=0 and 120 min. Arrow points to the major components in the gliadin mixture represented by α and γ-gliadins containing most of the immunogenic epitopes.
Degradation of mixed gliadins and the 33-mer peptide—Mixed gliadins were obtained from Sigma. A synthetic highly immunogenic α-gliadin derived 33-mer peptide (26) was synthesized at a purity of >90% (21st Century Biochemicals). Mixed gliadins or the 33-mer peptide (each at final concentration 250 μg/ml) were incubated with Rmep or subtilisin A (each at 57 μg/ml) in 50 mM TrisHCl, pH 8.0. After t=0, 15 min, 30 min, and 2 h, 100 μl sample aliquots were removed and boiled. Gliadin degradation was assessed by 4-12% SDS-PAGE followed by Coomassie staining, and 33-mer degradation was determined by RP-HPLC.

Suc-AAPF-pNA [1] = experiment: Hydrolysis of paranitroanilide-derivatized substrate Suc-AAPF-pNA; assay type: biochemical; settings: substrate 200 μM; enzyme 1 μg/ml (NattoK: dilution series); 50 mM TrisHCl pH 8.0, 37° C.
Experimental: (§1) FIG. 4A and FIG. 4B are representative graphs of the hydrolysis of the substrates: Suc-AAPF-pNA (SEQ ID NO: 4), Z-YPQ-pNA, and Z-LPY-pNA, each at 200 μM, by Rmep and subtilisin A, respectively, each at 1 μg/ml.
FIG. 8C show a representative graph of the hydrolysis of the substrate, Suc-AAPF-pNA (SEQ ID NO: 4), with a dilution series of NattoK. Suc-AAPF-pNA (SEQ ID NO: 4) was incubated […]. Hydrolysis was measured at 405 nm.
(§2) Hydrolysis of paranitroanilide-derivatized substrates—Paranitroanilide (pNA)-derivatized tripeptide substrates were chemically synthesized at >90% purity (21st Century Biochemicals, Marlborough, Mass.). The substrates obtained were Z-YPQ-pNA, Z-QQP-pNA, Z-LPY-pNA, Z-PFP-pNA, Z-PPF-pNA, where Z=benzyloxycarbonyl, Y=tyrosine, P=proline, Q=glutamine, L=leucine, and F=phenylalanine Suc-AAPF-pNA (SEQ ID NO: 4) was obtained from Sigma, where Suc=N-succinyl and A=alanine. The peptides were dissolved in 75-100% DMSO at 10 mM, and were used at a final concentration of 200 μM in 50 mM TrisHCl pH 8.0. Purified Rothia enzyme or subtilisin A from Bacillus licheniformis (Sigma) were tested at final concentrations of 1 μg/ml. Some experiments were conducted in the presence of inhibitors 4-(2-Aminoethyl) benzenesulfonyl fluoride (AEBSF), Aprotinin, E-64, EDTA, phenylmethanesulfonyl fluoride (PMSF) and Eglin C, which were tested at final concentrations of 10 mM, 0.08 mM, 0.1 mM, 1.5 mM, 1 mM, and 0.06-1.2 μM, respectively. Enzymes were preincubated with the inhibitors for 20 min before adding Suc-AAPF-pNA (SEQ ID NO: 4). Substrate hydrolysis was monitored for 10 h at 405 nm using a Genios microtiter plate reader (Tecan, Männedorf, Switzerland) in the kinetic mode at 37° C.

Suc-AAPF-pNA [2] = experiment: pH activity profile of Rmep with Suc-AAPF-pNA; assay type: biochemical; settings: Suc-AAPF-pNA 200 μM; citric acid/phosphate buffer mixtures pH 2-12
Experimental: Activity of Rmep in 0.1M Citric acid/0.2M phosphate buffer mixtures, pH 2-12, was measured with Suc-AAPF-pNA (SEQ ID NO: 4) (200 μM) as the substrate.
as §2, with “Enzymes were preincubated with the inhibitors for 20 min before adding Suc-AAPF-pNA (SEQ ID NO: 4).” left out

Z-PFP-pNA = experiment: Hydrolysis of paranitroanilide-derivatized substrate Z-PFP-pNA; assay type: biochemical; settings: substrate 200 μM, pH 8.0 (data not shown)
Experimental: as §2

Z-LPY-pNA = experiment: Hydrolysis of paranitroanilide-derivatized substrate Z-LPY-pNA; assay type: biochemical; settings: five-fold increased enzyme concentrations (5 μg/ml) and longer incubation times
Experimental: as §1
FIG. 4C show a representative graph of the hydrolysis of the substrate, LPY, by Rmep and subtilisin A at 5 μg/ml and extended incubation times.
as §2, with “Some experiments were conducted in the presence of inhibitors 4-(2-Aminoethyl) benzenesulfonyl fluoride (AEBSF), Aprotinin, E-64, EDTA, phenylmethanesulfonyl fluoride (PMSF) and Eglin C, which were tested at final concentrations of 10 mM, 0.08 mM, 0.1 mM, 1.5 mM, 1 mM, and 0.06-1.2 μM, respectively. Enzymes were preincubated with the inhibitors for 20 min before adding Suc-AAPF-pNA (SEQ ID NO: 4).” left out

[3] = tested on: G12 epitopes (QPQLPY) in mixed gliadins; experiment: G12 ELISA, gluten epitope elimination in gliadin digests; assay type: biochemical; settings: gliadins 250 μg/ml, enzyme 57 μg/ml
Experimental: FIG. 8E and FIG. 8F show the assessment of the survival of epitopes in the gliadin-NattoK degradation mixture employing the R5 ELISA (FIG. 8E) or G12 ELISA (FIG. 8F) assays. Epitope abolishment in Mixed gliadins (250 μg/ml) were incubated with NattoK (57 μg/ml) for 0, 15, 30 and 120 min and then assayed by the R5 ELISA or G12 ELISA.
R5 and G12 ELISA assays—Gluten epitope elimination in the gliadin-Rmep and gliadin-subtilisin A digests was assessed using two sandwich ELISA assays employing the R5 monoclonal antibody (RIDASCREEN Gliadin, R-Biopharm, Darmstadt, Germany) or the G12 monoclonal antibody (AgraQuant® ELISA Gluten G12, Romer labs, Union, Mo.). To prevent high background values, the R5 plate wells were blocked with 1% skim milk in PBS prior to incubation with the samples. The assays were performed according to the manufacturers' instructions and as described (21, 24).
To further investigate this, the time courses of degradation of mixed gliadins and the highly immunogenic 33-mer α-gliadin peptide were determined. Furthermore, epitope elimination was monitored by two ELISA assays employing the R5 antibody recognizing QQPFP (SEQ ID NO: 40) and related pentapeptides (27, 28) and the G12 antibody recognizing QPQLPY (SEQ ID NO: 22) contained in the 33-mer peptide (29, 30). Data obtained with Rmep are shown in FIG. 5, and with subtilisin A in FIG. 6.

Molecule	incubation time within which mixed gliadins were degraded (mixed gliadins; 50 mM TrisHCl pH 8.0) [min]	hydrolysis of Suc-AAPF-pNA (Suc-AAPF-pNA [1])	pH range over which the enzyme was active (Suc-AAPF-pNA [2])	hydrolysis of Z-PFP-pNA (Z-PFP-pNA)	hydrolysis of Z-LPY-pNA (Z-LPY-pNA)	decrease of G12 antibody binding after 30 min ([3]; 30 min) [%]	reduction of G12 antibody binding / G12 epitope degradation after 2 h [3] [%]	degradation of mixed gliadins in the t=0 sample (mixed gliadins; pH 8.0, t=0)	G12 epitope degradation at t=0 ([3]; t=0) [%]
Rmep: DEAE pooled fraction F2 of R. mucilaginosa ATCC 25296 extract with highest gluten-degrading enzyme activity; contains subtilisins C6R5V9_9MICC and C6R5W1_9MICC	≤ 15	cleaved most rapidly	6.0-10.0	not hydrolyzed	could be demonstrated	65	85	–	–
B1	–	cleaved most rapidly	–	not hydrolyzed	could be demonstrated	–	45	near complete degradation	22
